Laboratory results published in PubChem BioAssay (NCI).
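Cells were grown in 96-well plates and exposed to each compound for 48 hours at five concentrations; endpoints were interpolated linearly between bracketing concentrations, or set to the highest concentration if not reached. The concentration for 50% growth inhibition is given as GI50. Definition used: TGI = concentration required for complete inhibition of growth.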

How the values were obtained:
Assay in all cases: DTP human tumour cell line panel, 48 h
786-0 renal = tested on: 786-0 renal
A498 renal = tested on: A498 renal
A549 NSCLC = tested on: A549 NSCLC
ACHN renal = tested on: ACHN renal
BT-549 breast = tested on: BT-549 breast
CAKI-1 renal = tested on: CAKI-1 renal
CCRF-CEM leukemia = tested on: CCRF-CEM leukemia
COLO 205 colon = tested on: COLO 205 colon
DU-145 prostate = tested on: DU-145 prostate
EKVX NSCLC = tested on: EKVX NSCLC
HCC-2998 colon = tested on: HCC-2998 colon
HCT-116 colon = tested on: HCT-116 colon
HCT-15 colon = tested on: HCT-15 colon
HL-60(TB) leukemia = tested on: HL-60(TB) leukemia
HOP-62 NSCLC = tested on: HOP-62 NSCLC
HOP-92 NSCLC = tested on: HOP-92 NSCLC
HS 578T breast = tested on: HS 578T breast
HT29 colon = tested on: HT29 colon
IGROV1 ovarian = tested on: IGROV1 ovarian
KM12 colon = tested on: KM12 colon
LOX IMVI melanoma = tested on: LOX IMVI melanoma
M14 melanoma = tested on: M14 melanoma
MALME-3M melanoma = tested on: MALME-3M melanoma
MCF7 breast = tested on: MCF7 breast
MDA-MB-231 breast = tested on: MDA-MB-231 breast
MDA-MB-435 = tested on: MDA-MB-435
MOLT-4 leukemia = tested on: MOLT-4 leukemia
NCI-H226 lung = tested on: NCI-H226 lung
NCI-H23 lung = tested on: NCI-H23 lung
NCI-H460 lung = tested on: NCI-H460 lung
NCI-H522 lung = tested on: NCI-H522 lung
NCI/ADR-RES ovarian = tested on: NCI/ADR-RES ovarian
OVCAR-3 ovarian = tested on: OVCAR-3 ovarian
OVCAR-4 ovarian = tested on: OVCAR-4 ovarian
OVCAR-5 ovarian = tested on: OVCAR-5 ovarian
OVCAR-8 ovarian = tested on: OVCAR-8 ovarian
PC-3 prostate = tested on: PC-3 prostate
RPMI-8226 leukemia = tested on: RPMI-8226 leukemia
RXF 393 renal = tested on: RXF 393 renal
SF-268 CNS = tested on: SF-268 CNS
SF-295 CNS = tested on: SF-295 CNS
SF-539 CNS = tested on: SF-539 CNS
SK-MEL-2 melanoma = tested on: SK-MEL-2 melanoma
SK-MEL-28 melanoma = tested on: SK-MEL-28 melanoma
SK-MEL-5 melanoma = tested on: SK-MEL-5 melanoma
SK-OV-3 ovarian = tested on: SK-OV-3 ovarian
SN12C renal = tested on: SN12C renal
SNB-19 CNS = tested on: SNB-19 CNS
SR leukemia = tested on: SR leukemia
SW-620 colon = tested on: SW-620 colon
T-47D breast = tested on: T-47D breast
TK-10 renal = tested on: TK-10 renal
U251 CNS = tested on: U251 CNS
UACC-257 melanoma = tested on: UACC-257 melanoma
UACC-62 melanoma = tested on: UACC-62 melanoma
UO-31 renal = tested on: UO-31 renal

**Q.** With C#CCOc1ccc2ncnc(Nc3ccc(NC(=O)CCl)cc3)c2c1 as the compound, how does the GI50 (786-0 renal) read?
**A.** 4.36 µM

**Q.** What about the TGI (786-0 renal) of the same compound?
**A.** 16 µM

**Q.** And the GI50 (A498 renal)?
**A.** 10.6 µM

**Q.** What about the TGI (A498 renal) of the same compound?
**A.** 24 µM

**Q.** What about the GI50 (A549 NSCLC) of the same compound?
**A.** 13.4 µM

**Q.** What about the TGI (A549 NSCLC) of the same compound?
**A.** 39.7 µM

**Q.** What about the GI50 (ACHN renal) of the same compound?
**A.** 11 µM

**Q.** And the TGI (ACHN renal)?
**A.** 23.3 µM

**Q.** And the GI50 (BT-549 breast)?
**A.** 3.81 µM

**Q.** And the TGI (BT-549 breast)?
**A.** 16.6 µM

**Q.** And the GI50 (CAKI-1 renal)?
**A.** 11.3 µM

**Q.** And the TGI (CAKI-1 renal)?
**A.** 23.6 µM

**Q.** What about the GI50 (CCRF-CEM leukemia) of the same compound?
**A.** 2.38 µM

**Q.** And the TGI (CCRF-CEM leukemia)?
**A.** 12.2 µM

**Q.** And the GI50 (COLO 205 colon)?
**A.** 13.8 µM

**Q.** And the TGI (COLO 205 colon)?
**A.** 31.5 µM

**Q.** And the GI50 (DU-145 prostate)?
**A.** 11.7 µM

**Q.** What about the TGI (DU-145 prostate) of the same compound?
**A.** 24 µM

**Q.** What about the GI50 (EKVX NSCLC) of the same compound?
**A.** 10.9 µM

**Q.** And the TGI (EKVX NSCLC)?
**A.** 33.2 µM

**Q.** What about the GI50 (HCC-2998 colon) of the same compound?
**A.** 13.7 µM

**Q.** And the TGI (HCC-2998 colon)?
**A.** 27.1 µM

**Q.** And the GI50 (HCT-116 colon)?
**A.** 3.68 µM

**Q.** What about the TGI (HCT-116 colon) of the same compound?
**A.** 14.9 µM

**Q.** What about the GI50 (HCT-15 colon) of the same compound?
**A.** 2.96 µM

**Q.** What about the TGI (HCT-15 colon) of the same compound?
**A.** 19.2 µM

**Q.** What about the GI50 (HL-60(TB) leukemia) of the same compound?
**A.** 5.91 µM

**Q.** What about the TGI (HL-60(TB) leukemia) of the same compound?
**A.** 25.2 µM

**Q.** And the GI50 (HOP-62 NSCLC)?
**A.** 13.8 µM

**Q.** And the TGI (HOP-62 NSCLC)?
**A.** 37.1 µM

**Q.** And the GI50 (HOP-92 NSCLC)?
**A.** 12.2 µM

**Q.** What about the TGI (HOP-92 NSCLC) of the same compound?
**A.** 27.9 µM

**Q.** What about the GI50 (HS 578T breast) of the same compound?
**A.** 5.61 µM

**Q.** What about the TGI (HS 578T breast) of the same compound?
**A.** 61.7 µM

**Q.** And the GI50 (HT29 colon)?
**A.** 4.22 µM

**Q.** What about the TGI (HT29 colon) of the same compound?
**A.** 16 µM

**Q.** What about the GI50 (IGROV1 ovarian) of the same compound?
**A.** 3.15 µM

**Q.** What about the TGI (IGROV1 ovarian) of the same compound?
**A.** 10.9 µM

**Q.** And the GI50 (KM12 colon)?
**A.** 8.54 µM

**Q.** And the TGI (KM12 colon)?
**A.** 23.7 µM

**Q.** And the GI50 (LOX IMVI melanoma)?
**A.** 1.5 µM

**Q.** And the TGI (LOX IMVI melanoma)?
**A.** 3.43 µM

**Q.** And the GI50 (M14 melanoma)?
**A.** 9.4 µM

**Q.** What about the TGI (M14 melanoma) of the same compound?
**A.** 27.7 µM

**Q.** And the GI50 (MALME-3M melanoma)?
**A.** 4.58 µM

**Q.** What about the TGI (MALME-3M melanoma) of the same compound?
**A.** 18.1 µM

**Q.** What about the GI50 (MCF7 breast) of the same compound?
**A.** 3.61 µM

**Q.** What about the TGI (MCF7 breast) of the same compound?
**A.** 15.9 µM

**Q.** What about the GI50 (MDA-MB-231 breast) of the same compound?
**A.** 4.51 µM

**Q.** And the TGI (MDA-MB-231 breast)?
**A.** 20 µM

**Q.** And the GI50 (MDA-MB-435)?
**A.** 2.67 µM

**Q.** What about the TGI (MDA-MB-435) of the same compound?
**A.** > 100 µM

**Q.** What about the GI50 (MOLT-4 leukemia) of the same compound?
**A.** 3.19 µM

**Q.** What about the TGI (MOLT-4 leukemia) of the same compound?
**A.** 17.7 µM

**Q.** And the GI50 (NCI-H226 lung)?
**A.** 17.8 µM

**Q.** What about the TGI (NCI-H226 lung) of the same compound?
**A.** 68.6 µM

**Q.** And the GI50 (NCI-H23 lung)?
**A.** 3.85 µM

**Q.** And the TGI (NCI-H23 lung)?
**A.** 18.4 µM

**Q.** What about the GI50 (NCI-H460 lung) of the same compound?
**A.** 10.6 µM

**Q.** What about the TGI (NCI-H460 lung) of the same compound?
**A.** 30.1 µM

**Q.** What about the GI50 (NCI-H522 lung) of the same compound?
**A.** 2 µM

**Q.** What about the TGI (NCI-H522 lung) of the same compound?
**A.** 4.27 µM

**Q.** What about the GI50 (NCI/ADR-RES ovarian) of the same compound?
**A.** 3.76 µM

**Q.** What about the TGI (NCI/ADR-RES ovarian) of the same compound?
**A.** 36.4 µM

**Q.** And the GI50 (OVCAR-3 ovarian)?
**A.** 4.68 µM

**Q.** What about the TGI (OVCAR-3 ovarian) of the same compound?
**A.** 17.2 µM

**Q.** And the GI50 (OVCAR-4 ovarian)?
**A.** 11.9 µM

**Q.** And the TGI (OVCAR-4 ovarian)?
**A.** 39.2 µM

**Q.** What about the GI50 (OVCAR-5 ovarian) of the same compound?
**A.** 16.8 µM

**Q.** What about the TGI (OVCAR-5 ovarian) of the same compound?
**A.** 44.7 µM

**Q.** What about the GI50 (OVCAR-8 ovarian) of the same compound?
**A.** 5.15 µM

**Q.** What about the TGI (OVCAR-8 ovarian) of the same compound?
**A.** 63.4 µM

**Q.** What about the GI50 (PC-3 prostate) of the same compound?
**A.** 8.1 µM

**Q.** What about the TGI (PC-3 prostate) of the same compound?
**A.** 27.6 µM

**Q.** And the GI50 (RPMI-8226 leukemia)?
**A.** 3.88 µM

**Q.** And the TGI (RPMI-8226 leukemia)?
**A.** 18.1 µM

**Q.** What about the GI50 (RXF 393 renal) of the same compound?
**A.** 4.64 µM

**Q.** What about the TGI (RXF 393 renal) of the same compound?
**A.** 17.9 µM

**Q.** What about the GI50 (SF-268 CNS) of the same compound?
**A.** 4.67 µM

**Q.** What about the TGI (SF-268 CNS) of the same compound?
**A.** 22.3 µM

**Q.** And the GI50 (SF-295 CNS)?
**A.** 10.1 µM

**Q.** And the TGI (SF-295 CNS)?
**A.** 24.5 µM

**Q.** What about the GI50 (SF-539 CNS) of the same compound?
**A.** 2.89 µM

**Q.** And the TGI (SF-539 CNS)?
**A.** 10.6 µM

**Q.** And the GI50 (SK-MEL-2 melanoma)?
**A.** 12.6 µM

**Q.** And the TGI (SK-MEL-2 melanoma)?
**A.** 57.3 µM

**Q.** What about the GI50 (SK-MEL-28 melanoma) of the same compound?
**A.** 14.5 µM

**Q.** What about the TGI (SK-MEL-28 melanoma) of the same compound?
**A.** 79.6 µM

**Q.** And the GI50 (SK-MEL-5 melanoma)?
**A.** 3.87 µM

**Q.** What about the TGI (SK-MEL-5 melanoma) of the same compound?
**A.** 15.5 µM

**Q.** And the GI50 (SK-OV-3 ovarian)?
**A.** 12.5 µM

**Q.** What about the TGI (SK-OV-3 ovarian) of the same compound?
**A.** 38.6 µM

**Q.** What about the GI50 (SN12C renal) of the same compound?
**A.** 6.4 µM

**Q.** And the TGI (SN12C renal)?
**A.** 36.9 µM

**Q.** And the GI50 (SNB-19 CNS)?
**A.** 8.43 µM

**Q.** And the TGI (SNB-19 CNS)?
**A.** 22.3 µM

**Q.** What about the GI50 (SR leukemia) of the same compound?
**A.** 2.69 µM

**Q.** And the TGI (SR leukemia)?
**A.** 15 µM

**Q.** And the GI50 (SW-620 colon)?
**A.** 3.48 µM

**Q.** And the TGI (SW-620 colon)?
**A.** 13.3 µM

**Q.** What about the GI50 (T-47D breast) of the same compound?
**A.** 8.4 µM

**Q.** And the TGI (T-47D breast)?
**A.** 31.9 µM

**Q.** What about the GI50 (TK-10 renal) of the same compound?
**A.** 13.7 µM

**Q.** And the TGI (TK-10 renal)?
**A.** 42.7 µM

**Q.** And the GI50 (U251 CNS)?
**A.** 2.08 µM

**Q.** What about the TGI (U251 CNS) of the same compound?
**A.** 5.99 µM

**Q.** And the GI50 (UACC-257 melanoma)?
**A.** 15.5 µM

**Q.** What about the TGI (UACC-257 melanoma) of the same compound?
**A.** 38.4 µM

**Q.** What about the GI50 (UACC-62 melanoma) of the same compound?
**A.** 8.97 µM

**Q.** What about the TGI (UACC-62 melanoma) of the same compound?
**A.** 27.4 µM

**Q.** And the GI50 (UO-31 renal)?
**A.** 8.45 µM

**Q.** What about the TGI (UO-31 renal) of the same compound?
**A.** 22.2 µM
